Assay results from patent publication US6001810A, “Methods for treating retroviral infection” (Eli Lilly and Company, priority 1990, dated 1999).
Non-standard residues stand in square brackets, D forms with d. Residues, ends and D or L forms follow the SMILES beside them. Phe(4-NH2) = Nc1ccc(C[C@H](N)C(=O)O)cc1; 1Nal = N[C@@H](Cc1cccc2ccccc12)C(=O)O; Sta = CC(C)C[C@H](N)[C@@H](O)CC(=O)O

Key:
[1] = target: T1, HIV-1 protease (Human immunodeficiency virus type 1 group M subtype B, UniProt P04585); assay: HIV-1 protease inhibition assay (gag precursor maturation, Western blot); type: biochemical
T1 construct: a gene encoding the mature HIV-1 protease of 99 amino acids; last 58 codons of bovine growth hormone, fused behind the first 144 amino acids of reverse transcriptase in the expressed precursor (C); made in house; host or cells: Escherichia coli K12 L507/pHP10D (NRRL B-18560), crude lysate
Protocol: A 100 μl control reaction was established containing 10 to 20 μl of crude protease, about 2 μl of the gag supernatant and final concentrations of 50 mM MES Buffer (pH 5.5), 1 mM DTT and 25 mM NaCl. Inhibition assays were performed by pre-incubating the crude protease with an inhibitory compound at room temperature for about 30 minutes before adding the gag supernatant to the reaction. Both the control and the experimental reactions were incubated from three to sixteen hours at 37° C. The reactions were then electrophoresed and blotted onto nitrocellulose filters. Monoclonal antibodies which recognize epitopes on p24 and p17 viral proteins were contacted with the filter then visualized using standard biotinylation or radionuclear techniques. Compounds which prevented the maturation of the gag polypeptide into mature viral proteins p24 and p17 were then ranked according to their HIV-1 protease inhibitory activity.
About 10 to 20 μl of the crude protease lysate was mixed with about 2 μl of the gag supernatant. The mixture was then brought to a total volume of 100 μl by the addition of distilled water, MES buffer (2-[N-Morpholino]ethanesulfonic acid) (pH 5.5 to a total concentration of 50 mM), DTT (dithiolthreitol) (to a total concentration of 1 mM) and NaCl (to a total concentration of 25 mM). This reaction mixture was mixed gently then incubated from 3 hours to overnight at 37° C.
Next, about 25 μl of the reaction was mixed with loading buffer and subjected to polyacrylamide gel electrophoresis on a 12.5% Laemmli gel under reducing conditions. The proteins were transferred onto a nitrocellulose filter using standard "Western Blot" electrophoresis at 500 mAmps for 35 minutes at room temperature. The filter was air-dried, then non-specific immunoreaction was blocked by washing the filter for 30 minutes at 4° C. in a solution of 3% non-fat dry milk powder in phosphate buffered saline (PBS).
Monoclonal antibodies against p17 and/or p24 (available from DuPont, Wilmington, Del.) were added to about 40 ml of the 3% milk/PBS solution to a final concentration of 2 μg/ml. […] The filter then was removed and washed 5 times with PBS, then the maturation of the gag gene was determined by reaction with I^125 -labeled protein A or by reaction with biotinylated anti-mouse IgG antibodies (Vecta Stain®). […]
Following the procedure, it is simple to determine the activity of the HIV-1 protease encoded on plasmid pHP10D and produced in E. coli cells. When the protease is fully active, the gag protein, encoded by plasmid pHGAG and produced in E. coli, is cleaved from the precursor gag form into mature p24 and p17 proteins, which are readily measured by their presence relative to the precursor protein. […]

[2] = system: CEM cells; type: cell-based
Protocol: (§1) Quantitative evaluation of the viral inhibition were performed on the T-cell lymphoblastoid cell lines MT-2 (Harada et al., 1985, Science 229:563-566) and CEM (Nara and Fischinger, 1988, Nature 332:469-470). The cells were infected with the HTLV-IIIB strain of HIV-1 from the supernatant fluid of infected human T-lymphocyte cell line H9 (Popovic, M. et al., 1984, Science 224:497-500). Each of these three cell lines are publicly available from the National Institutes of Health (NIH) AIDS Research and Reference Reagent Program. The H9/HTLC-IIIB cell line is available under catalogue number 231, while CEM cell line is available under catalogue number 117 and the MT-2 cell line is available under the catalogue number 237. MT-2 and CEM cells were grown in RPMI 1640 medium supplemented with 10% (v/v) fetal calf serum, 100 U/ml penicillin, 100 μg/ml streptomycin and 25 mM HEPEs buffer. H9 cells were grown in the same medium except 20% fetal calf serum was used. The peptides were diluted in the medium used for MT-2 and CEM cells. Cell cultures were maintained in disposable tissue culture labware at 37° C. in a humidified atmosphere of 5% CO2 in air.
(§2) The inhibitors were dissolved in DMSO at 40 mg/ml or sterile water at 2 mg/ml, then dilutions were made in medium. The dilutions were added to micro-titer plates in 100 μl/well aliquots so that the high drug concentration for each screen was 100 μg/ml after the addition of cells to the well.
(§3) Susceptible MT-2 and CEM cells were grown and the cell population determined by a trypan blue viable cell count. The desired total number of cells were placed in a sterile, disposable 50 ml conical centrifuge tube and virus was added to give an MOI (Multiplicity of Infection) of 0.03 TCID50 /cell (Tissue Culture Infectious Dose) on MT-2 cells and approximately 0.12 TCID50 /cell on CEM cells. Fresh medium was added to adjust the cell density to 1×10^5 cells/ml, then the virus-cell suspension was incubated at 37° C. for 1 to 2 hours until plating. Uninfected controls cell were prepared in the same manner but without the addition of virus. Infected and uninfected cells were added to plates in 100 μl/well aliquots to give a starting cell number of 1×10^4 cells/well. The plates were incubated for seven days in a humidified atmosphere of 5% CO2 in air.
Reagents for colorimetric evaluation of cell viability were prepared by mixing the tetrazolium reagent, XTT, and phenazine methosulfate (PMS) to final concentrations of 200 μg/ml and 0.02 mM, respectively. Fifty microliters of the XTT-PMS solution was added to each well of the microtiter plates, then the plates were incubated in the CO2 incubator for another four hours. The lids were removed from the plates and replaced with adhesive plate sealers. The plates were read with the sealers in place in a Vmax Plate Reader® at 450 nm and 650 nm. The cytopathic effect (CPE) and percentage of cell viability were then calculated.
The activity and cytotoxicity of several other peptides were also assayed in CEM cells using the same procedure as described above. These assays also included toxicity and activity levels of both 25% and 50%.

[3] = system: MT-2 cells; type: cell-based
Protocol: as §1, §2, §3
Reagents for colorimetric evaluation of cell viability were prepared by mixing the tetrazolium reagent, XTT, and phenazine methosulfate (PMS) to final concentrations of 200 μg/ml and 0.02 mM, respectively. […] The plates were read with the sealers in place in a Vmax Plate Reader® at 450 nm and 650 nm. The cytopathic effect (CPE) and percentage of cell viability were then calculated.

Molecule | MTC50 (minimum cytotoxic drug concentration that reduces cell viability to 50%) [2] [µg/mL] | MTC50 (minimum cytotoxic drug concentration that reduces cell viability to 50%) [3] [µg/mL] | other results
CC(=O)N[C@H](C(=O)N[C@@H](CC(C)C)[C@@H](O)CC(=O)N[C@@H](CC(C)C)C(=O)N[C@@H](Cc1ccccc1)C(N)=O)C(C)C [Ac-Val-Statine-Leu-Phe--NH2] (Ac-V[Sta]LF-NH2) |  |  | Inhibitory activity against the HIV protease (in words) [1]: inactive
CC(C)C[C@H](NC(=O)C[C@H](O)[C@H](CC(C)C)NC(=O)[C@@H](NC(=O)[C@H](Cc1ccccc1)NC(=O)[C@@H]1CCCN1C(=O)[C@H](Cc1ccc(N)cc1)NC(=O)[C@@H]1CCCN1)C(C)C)C(=O)N[C@@H](Cc1ccccc1)C(=O)N[C@@H](Cc1ccc(N)cc1)C(N)=O [P-1, H-Pro paF Pro Phe Val Statine Leu Phe paF NH2] (H-P[Phe(4-NH2)]PFV[Sta]LF[Phe(4-NH2)]-NH2) | > 100 | > 100 | 
CC(=O)N[C@@H](Cc1cccc2ccccc12)C(=O)N1CCC[C@H]1C(=O)N[C@@H](Cc1ccccc1)C(=O)N[C@H](C(=O)N[C@@H](CC(C)C)[C@@H](O)CC(=O)N[C@@H](CC(C)C)C(=O)N[C@@H](Cc1ccccc1)C(N)=O)C(C)C [P-7, Ac NA Pro Phe Val Statine Leu Phe NH2] (Ac-[1Nal]PFV[Sta]LF-NH2) | 21 | 24.4 | IC25 (Table V) [2]: > 10 µg/mL; TC50 (concentration that reduced cell viability by 50%) [2]: > 10 µg/mL
CC(C)C[C@H](NC(=O)C[C@H](O)[C@H](CC(C)C)NC(=O)[C@@H](NC(=O)[C@H](Cc1ccccc1)NC(=O)[C@@H]1CCCN1C(=O)[C@@H](N)Cc1c[nH]cn1)C(C)C)C(=O)N[C@@H](Cc1ccccc1)C(=O)N[C@@H](Cc1ccc(N)cc1)C(N)=O [P-15, H-His Pro Phe Val Statine Leu Phe paF NH2] (H-HPFV[Sta]LF[Phe(4-NH2)]-NH2) | > 100 | > 100 | 
H-Pro His Pro Phe His AVA Ile Phe NH2 [P-25] |  |  | Relative Inhibition of HIV-1 Protease Activity (10^-4 M) ([1]; peptide concentration added 10^-4 M): -; Relative Inhibition of HIV-1 Protease Activity (10^-5 M) ([1]; peptide concentration added 10^-5 M): -; Relative Inhibition of HIV-1 Protease Activity (10^-6 M) ([1]; peptide concentration added 10^-6 M): -
